From the supplement of paper PMC10307832 come the findings set out here.

What all share (assay): relative viability (nuclei count vs DMSO), 5 days (fraction); higher = more cells survive
Compound in test [1]: CCn1c(-c2nonc2N)nc2cnc(Oc3cccc(NC(=O)c4ccc(OCCN5CCOCC5)cc4)c3)cc21 + Cc1nc(Nc2ncc(C(=O)Nc3c(C)cccc3Cl)s2)cc(N2CCN(CCO)CC2)n1 [Dasatinib] (partner 0.075 µM)
The method in brief: (§1)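 Dosing by pin tool came one day after lung cancer cell lines were seeded in 1536-well plates, using either one drug or a fixed anchor-drug dose plus five library-drug doses (not always all listed) in √10 steps. After 5 days, nuclei were counted on 4× images. Relative viability is treated-well nuclei count divided by vehicle-well nuclei count, and values are medians of duplicate plates.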

Compound in test [2]: CCn1c(-c2nonc2N)nc2cnc(Oc3cccc(NC(=O)c4ccc(OCCN5CCOCC5)cc4)c3)cc21 + N=C(N)NC(=N)NCCc1ccccc1 [Phenformin] (partner 250 µM)
In short, it runs like this:
as §1

Compound in test [3]: CCn1c(-c2nonc2N)nc2cnc(Oc3cccc(NC(=O)c4ccc(OCCN5CCOCC5)cc4)c3)cc21 + NC(=O)Nc1cc(-c2cccc(F)c2)sc1C(=O)N[C@H]1CCCNC1 [AZD7762] (partner 0.2 µM)
In short, it runs like this: as §1

Compound in the test “Mirin + Decitabine”: N=C1NC(=O)/C(=C/c2ccc(O)cc2)S1 [Mirin] + Nc1ncn([C@H]2C[C@H](O)[C@@H](CO)O2)c(=O)n1 [Decitabine] (partner 2 µM)
In short, it runs like this:
as §1

Consider HARA, for which the relative viability in test [1] (first compound 0.04 µM) was found to be 0.243; in test [1] (first compound 0.1265 µM), 0.213; in test [1] (first compound 0.4 µM), 0.124; in test [1] (first compound 1.265 µM) it was 0.0816; in test [1] (first compound 4 µM), 0.074; in test [2] (first compound 0.04 µM) it was 0.585. The relative viability came out at 0.369 in test [2] (first compound 0.1265 µM); 0.231 in test [2] (first compound 0.4 µM); 0.0981 in test [2] (first compound 1.265 µM); 0.074 in test [2] (first compound 4 µM); 0.215 in test [3] (first compound 0.04 µM); 0.161 in test [3] (first compound 0.1265 µM). For the same cell line, the relative viability worked out at 0.148 in test [3] (first compound 0.4 µM); 0.207 in test [3] (first compound 1.265 µM); 0.198 in test [3] (first compound 4 µM); 0.768 in the test with Mirin + Decitabine (first compound 0.25 µM); 0.644 in the test with Mirin + Decitabine (first compound 2.5 µM); 0.653 with Mirin + Decitabine (first compound 7.906 µM). Besides, in the test with Mirin + Decitabine (first compound 25 µM), the relative viability is 0.442.
With HCC-15, the relative viability in test [1] (first compound 0.04 µM) is 0.618; in test [1] (first compound 0.1265 µM), 0.464; in test [1] (first compound 0.4 µM), 0.349; in test [1] (first compound 4 µM), 0.395; in test [2] (first compound 0.04 µM) it was 0.532; in test [2] (first compound 0.1265 µM) it was 0.362. Moreover, the relative viability in test [2] (first compound 0.4 µM) amounted to 0.269; in test [2] (first compound 4 µM), 0.364; in test [3] (first compound 0.04 µM), 1.3; in test [3] (first compound 0.1265 µM), 1.51; in test [3] (first compound 0.4 µM), 0.974; in test [3] (first compound 1.265 µM) it was 1.05. Further, the relative viability was 0.987 in test [3] (first compound 4 µM); 0.612 with Mirin + Decitabine (first compound 0.25 µM); 0.517 with Mirin + Decitabine (first compound 0.7906 µM); 0.618 in the test with Mirin + Decitabine (first compound 2.5 µM); 0.59 with Mirin + Decitabine (first compound 7.906 µM); 0.505 in the test with Mirin + Decitabine (first compound 25 µM).
In the case of HCC-44, the relative viability in test [2] (first compound 0.04 µM) came out at 0.249; in test [2] (first compound 0.1265 µM), 0.216; in test [2] (first compound 0.4 µM), 0.113; in test [2] (first compound 1.265 µM), 0.096; in test [2] (first compound 4 µM), 0.074; in test [3] (first compound 0.04 µM) it was 1.07. The relative viability in test [3] (first compound 0.1265 µM) amounted to 1.18; in test [3] (first compound 0.4 µM) it was 0.916; in test [3] (first compound 1.265 µM), 0.975; in test [3] (first compound 4 µM), 0.333; with Mirin + Decitabine (first compound 0.25 µM) it was 0.938; with Mirin + Decitabine (first compound 0.7906 µM), 0.958. The results for the relative viability in the test with Mirin + Decitabine (first compound 2.5 µM), with Mirin + Decitabine (first compound 7.906 µM) and with Mirin + Decitabine (first compound 25 µM) were 0.99, 0.922 and 1.01, respectively.
In the case of HCC-78, the relative viability in test [1] (first compound 0.04 µM) came to 0.428; in test [1] (first compound 0.1265 µM) it was 0.474; in test [1] (first compound 1.265 µM), 0.4; in test [1] (first compound 4 µM), 0.428; in test [2] (first compound 0.04 µM) it was 0.789; in test [2] (first compound 0.1265 µM), 0.934. Moreover, the relative viability stood at 0.766 in test [2] (first compound 1.265 µM); 0.881 in test [2] (first compound 4 µM); 0.865 in test [3] (first compound 0.04 µM); 0.821 in test [3] (first compound 0.1265 µM); 0.617 in test [3] (first compound 1.265 µM); 0.906 in test [3] (first compound 4 µM). The relative viability in the test with Mirin + Decitabine (first compound 0.25 µM) turned out to be 0.514; with Mirin + Decitabine (first compound 0.7906 µM), 0.764; with Mirin + Decitabine (first compound 2.5 µM) it was 0.698; in the test with Mirin + Decitabine (first compound 7.906 µM) it was 0.565; in the test with Mirin + Decitabine (first compound 25 µM), 0.657.
For HCC-366, the relative viability was determined as 0.699 in test [1] (first compound 0.04 µM); 0.504 in test [1] (first compound 0.1265 µM); 0.0838 in test [1] (first compound 0.4 µM); 0.0451 in test [1] (first compound 1.265 µM); 0.0508 in test [1] (first compound 4 µM); 0.694 in test [2] (first compound 0.04 µM). Moreover, the relative viability in test [2] (first compound 0.1265 µM) was determined as 0.665; in test [2] (first compound 0.4 µM), 0.412; in test [2] (first compound 1.265 µM) it was 0.0542; in test [2] (first compound 4 µM), 0.0311; in test [3] (first compound 0.04 µM) it was 0.233; in test [3] (first compound 0.1265 µM), 0.123. Moreover, the relative viability in test [3] (first compound 0.4 µM) was 0.101; in test [3] (first compound 1.265 µM) it was 0.0314; in test [3] (first compound 4 µM) it was 0.0325; in the test with Mirin + Decitabine (first compound 0.25 µM), 0.342; with Mirin + Decitabine (first compound 0.7906 µM), 0.315; with Mirin + Decitabine (first compound 2.5 µM), 0.325. Also, the relative viability in the test with Mirin + Decitabine (first compound 7.906 µM) worked out at 0.322; with Mirin + Decitabine (first compound 25 µM), 0.374.
